Test results reported in PubChem BioAssay AID1963983 (Molecular Pharmacology Branch, DTP, NCI, 2024).

System: 186277-243-T-J2-PDC multi-cell spheroid viability
Test: Anticancer human tumor 186277-243-T-J2-PDC patient-derived colon adenocarcinoma cell line growth inhibition [PI3K]
Conditions: for IC50: curve of first compound; for viability, T/C: stronger effect = lower value; active = viability on the fitted dose curve at most 10% of control; inactive = the rest
Text: Combinatorial screen of targeted agents with the PI3K inhibitors inavolisib, alpelisib, duvelisib, and copanlisib in multi-cell type tumor spheroids
A high-throughput screen of multi-cell type tumor spheroids was designed to identify active combinations of targeted small molecules and PI3K pathway inhibitors. Complex spheroids include a stromal component modeled by human endothelial cells (HUVEC) and fibroblasts modeled by human mesenchymal stem cells (MSCs). The concentration ranges selected for each drug and investigational agent were based upon clinically achievable concentrations if the clinical Cmax of the agent was known.
Compounds. The drugs and investigational agents: inavolisib (NSC800729), alpelisib (NSC765974), duvelisib (NSC772469), copanlisib (NSC816437), ipatasertib (NSC767898), afuresertib (NSC778305), talazoparib (NSC767125), sapanisertib (NSC764658), selumetinib (NSC741078), tovorafenib (DAY101, NSC766906), vemurafenib (NSC761431), ravoxertinib (NSC781343), sotorasib (NSC818433), MRTX1133 (NSC 836407), abemaciclib (NSC 768073), palbociclib (NSC758247), venetoclax (NSC 766270), SY5609 (NSC837396), enzalutamide (NSC755605), and darolutamide (NSC825331), were obtained from the National Cancer Institute (NCI) Developmental Therapeutics Program Chemical Repository. The FDA-approved anticancer drug set is available from the NCI Developmental Therapeutics Program. […] The stock solutions were prepared in dimethyl sulfoxide (DMSO, Sigma-Aldrich, St. Louis, MO, cat. D2650) at 800-fold the tested concentration and stored at -70 degrees C prior to their use. All drugs and investigational agents were tested over a range starting from a high concentration at or near the clinical Cmax and decreasing in half-log increments. If the clinical Cmax for an agent had not been determined, the highest concentration tested was 10 microM.
Cell Culture. All cells were maintained in an incubator at 37 degrees C and 5% CO2 with 95% humidity. The PDC lines were cultured according to standard operating procedures established by the NCI PDMR (https://pdmr.cancer.gov/sops/default.htm). All PDCs were thawed and cultured in Matrigel-coated flasks prepared with a working solution of 1X Ham's F-12 nutrient mix, without supplementation (Invitrogen, Waltham, MA, cat. 11765054), 100 U/mL penicillin-streptomycin (Invitrogen, cat. 15140122), and 2.5% Matrigel (Corning Inc., Corning, NY, cat. 354248) for the first three passages. The 354836-022-R-J1-PDC, 475296-252-R-J1-PDC, and 997726-040-R-J2-PDC lines were cultured in 6A media, which includes advanced DMEM/F-12 (Thermo Fisher Scientific, cat. 12634028), 10 mM HEPES (Thermo Fisher Scientific, cat. 15630080), 1X GlutaMAX supplement (Thermo Fisher Scientific, cat. 35050061), 0.1 mg/mL primocin (InvivoGen, San Diego, CA, cat. ant-pm-2), 10% defined fetal bovine serum, heat inactivated (HyClone Laboratories Inc., Logan, UT, cat. SH30070.03HI), 50% L-WRN conditioned media (ATCC, cat. CRL-3276), 1.25 mM N-Acetyl-L-cysteine (Sigma-Aldrich, cat. A9165), 10 mM nicotinamide (Sigma-Aldrich, cat. N0636), 1X B-27 supplement (Thermo Fisher Scientific, cat. 17504044), 1X N-2 supplement (Thermo Fisher Scientific, cat. 17502048), and 10 microM Y-27632 dihydrochloride (Tocris Bioscience, Bristol, United Kingdom, cat. 1254). The 624824-186-R-J2-PDC line was cultured in 6C/Colon 1B media, which includes all 6A media components plus 50 ng/mL human EGF recombinant protein (Thermo Fisher Scientific, cat. PHG0311). […]
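Note: spheroids exposed to compounds for seven days before viability reading.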

Cn1ncc(Cl)c1-c1cc(C(=O)NC(CN)Cc2cccc(F)c2)sc1Cl (configuration not stated) + Cc1nc(NC(=O)N2CCCC2C(N)=O)sc1-c1ccnc(C(C)(C)C(F)(F)F)c1
253 nM: IC50 (second compound 0.1 µM)
< 31.6 nM: IC50 (second compound 3.16 µM) | IC50 (second compound 10 µM)
inactive: viability, T/C (second compound 0.0316 µM, first compound 0.0316 µM) 96.2% | viability, T/C (second compound 0.0316 µM, first compound 0.1 µM) 87.8% | viability, T/C (second compound 0.0316 µM, first compound 0.316 µM) 56.8% | viability, T/C (second compound 0.0316 µM, first compound 1 µM) 47.8% | viability, T/C (second compound 0.0316 µM, first compound 3.16 µM) 43% | viability, T/C (second compound 0.0316 µM, first compound 10 µM) 17.3% | viability, T/C (second compound 0.1 µM, first compound 0.0316 µM) 112% | viability, T/C (second compound 0.1 µM, first compound 0.1 µM) 68% | viability, T/C (second compound 0.1 µM, first compound 0.316 µM) 43.4% | viability, T/C (second compound 0.1 µM, first compound 1 µM) 32.4% | viability, T/C (second compound 0.1 µM, first compound 3.16 µM) 33.2% | viability, T/C (second compound 0.1 µM, first compound 10 µM) 11.6% | viability, T/C (second compound 0.316 µM, first compound 0.0316 µM) 114% | viability, T/C (second compound 0.316 µM, first compound 0.1 µM) 66.2% | viability, T/C (second compound 0.316 µM, first compound 0.316 µM) 43% | viability, T/C (second compound 0.316 µM, first compound 1 µM) 26.3% | viability, T/C (second compound 0.316 µM, first compound 3.16 µM) 25.3% | viability, T/C (second compound 0.316 µM, first compound 10 µM) 9.1% | viability, T/C (second compound 1 µM, first compound 0.0316 µM) 95% | viability, T/C (second compound 1 µM, first compound 0.1 µM) 65.7% | viability, T/C (second compound 1 µM, first compound 0.316 µM) 25% | viability, T/C (second compound 1 µM, first compound 1 µM) 14.7% | viability, T/C (second compound 1 µM, first compound 3.16 µM) 17.2% | viability, T/C (second compound 1 µM, first compound 10 µM) 3.49% | viability, T/C (second compound 3.16 µM, first compound 0.0316 µM) 48.7% | viability, T/C (second compound 3.16 µM, first compound 0.1 µM) 33.7% | viability, T/C (second compound 3.16 µM, first compound 0.316 µM) 19.6% | viability, T/C (second compound 3.16 µM, first compound 1 µM) 13.7% | viability, T/C (second compound 10 µM, first compound 0.0316 µM) 15.7%
960 nM: IC50 (second compound 0.0316 µM)
active: viability, T/C (second compound 3.16 µM, first compound 3.16 µM) 8.89% | viability, T/C (second compound 3.16 µM, first compound 10 µM) 1.65% | viability, T/C (second compound 10 µM, first compound 0.1 µM) 8.3% | viability, T/C (second compound 10 µM, first compound 0.316 µM) 6.89% | viability, T/C (second compound 10 µM, first compound 1 µM) 6.6% | viability, T/C (second compound 10 µM, first compound 3.16 µM) 3.36% | viability, T/C (second compound 10 µM, first compound 10 µM) 3.79%
157 nM: IC50 (second compound 1 µM)
225 nM: IC50 (second compound 0.316 µM)
